Reference: US5208343A, “Tetrahydropyridine oxime compounds” (Warner-Lambert Company, priority 1992, dated 1993)

Columns and labels:
sigma binding site = assay: Sigma binding affinity using [^3 H]-(+)-3-(3'-hydroxyphenyl) N (1'-propyl)piperidine ([^3 H]3PPP); details: [^3 H]3PPP radioligand, in vitro
Description: (§1) Sigma binding affinities are measured using [^3 H]-(+)-3-(3'-hydroxyphenyl) N (1'-propyl)piperidine, referred to in the following Table I as 3PPP. This test is carried out according to the procedures of B. L. Largent, et al, Proc. Natl. Acad. Sci., USA, 1984; 81:5618. The affinity of the compounds of the present invention for dopamine receptors was determined in vitro with the dopamine antagonist [^3 H]spiperone according to the procedure of S. Urwyler, et al, J. Neurochem. 1986; 46:1058. The ability of the compounds to bind muscarinic antagonist sites was determined in vitro using [^3 H]-quinuclidinyl benzylate (RQNB) according to the procedure of M. Watson, et al, J. Pharmacol. Exp. Ther. 1986; 237:411.

[1] = tested on: muscarinic antagonist sites; assay: Binding to muscarinic antagonist sites using [^3 H]-quinuclidinyl benzylate (RQNB); details: in vitro
Description: as §1

dopamine receptors = assay: Affinity for dopamine receptors with the dopamine antagonist [^3 H]spiperone (RBSP); format: binding; details: in vitro
Description: as §1

IC50 (sigma binding site) [nM]	RQNB % Inhib at 10^-6 M [1] [%]	IC50 (dopamine receptors) [nM]	Structure (SMILES)
2.07	27	> 1000	CCCN1CC=CC(CCC(=NO)c2ccccc2)C1.O=C(O)C(=O)O (stereo not drawn) [1(e)(a), 1-Phenyl-3-(1,2,3,6-tetrahydro-1-propyl-3-pyridinyl)-1-propanone oxime oxalate]
1.99	10	> 1000	CCCN1CCC=C(CCC(=NO)c2ccccc2)C1.O=C(O)C(=O)O [1(e)(b), 1-Phenyl-3-(1,2,5,6-tetrahydro-1-propyl-3-pyridinyl)-1-propanone oxime oxalate]
6.49	6	> 1000	CCCN1CC=CC(CCC(=NO)c2ccc(OC)cc2)C1.O=C(O)C(=O)O (stereo not drawn) [2(e)(a), 1-(4-Methoxyphenyl)-3-(1,2,3,6-tetrahydro-1-propyl-3-pyridinyl)-1-propanoneoxime oxalate]
2.39	9	> 1000	CCCN1CCC=C(CCC(=NO)c2ccc(OC)cc2)C1.O=C(O)C(=O)O [2(e)(b), 1-(4-Methoxyphenyl)-3-(1,2,5,6-tetrahydro-1-propyl-3-pyridinyl)-1-propanone oxime oxalate]
